Laboratory results published in ChEMBL document CHEMBL3860063, “New potently bioactive alkaloids from Crinum erubescens” (Bioorg Med Chem, 2016).

How the values were obtained:
[1] = test system: Plasmodium falciparum; assay: Antiplasmodial activity against chloroquine/mefloquine-resistant Plasmodium falciparum Dd2 measured after 72 hrs by SYBR Green1-based fluorescence assay; type: functional; settings: Dd2, 72 h
[2] = Antiproliferative activity against human A2780 cells measured after 2 days by AlamarBlue assay; type: functional, cell-based; settings: A2780, 48 h

Row | SMILES | IC50 [1] | IC50 [2]
1 | CO[C@@H]1[C@@H](OC)[C@H](O[C@@H]2CC(=O)[C@@H]3CCN(Cc4cc5c(cc43)OCO5)C(=O)[C@H]2O)O[C@H](C)[C@H]1OC | 260 nM | 28 nM
2 | C[C@@H]1CC[C@H]2[C@@H](C)C(=O)O[C@@H]3O[C@@]4(C)CC[C@@H]1[C@]32OO4 [ARTEMISININ] | 6 nM | –
3 | CO[C@H]1[C@@H]2OCOCO[C@H]2[C@H](O[C@@H]2CC(=O)[C@@H]3CCN(Cc4cc5c(cc43)OCO5)C(=O)[C@H]2O)O[C@@H]1C | 26 nM | 25 nM
4 | CO[C@H]1[C@@H]2OCOCO[C@H]2[C@H](O[C@@H]2CC(=O)[C@@H]3CCN(Cc4cc5c(cc43)OCO5)C(=O)[C@H]2O)O[C@@H]1CO | 30 nM | 11.1 nM
5 | CO[C@@H]1[C@@H](OC)[C@H](O[C@@H]2CC(=O)[C@@H]3CCN(Cc4cc5c(cc43)OCO5)C(=O)[C@H]2O)O[C@H](CO)[C@H]1OC | 180 nM | 16.4 nM
